Assay results as given in paper PMC6316234, “Bromopyrrole Alkaloids from the Sponge Agelas kosrae” (Marine Drugs, 2018).
pIC50: −log10 of the molar value. Where two headings read alike, the source gives them in different places.

How the values were obtained:
HCT116 = assay: Anti-proliferative activity, SRB staining assay, HCT116; assay type: cell-based; settings: Homo sapiens, HCT-116, 72 h, read-out: IC50 Anti-Proliferation HCT 116
Experimental: (§1) Anti-proliferative activity was evaluated using SRB staining assay in various cancer cell lines (K562, A549, HCT116, MDA-MB-231, SNU638, SK-Hep-1). Cells were purchased from the American Type Culture Collection (ATCC, Rockville, MD, USA). They were cultured in media supplemented with 10% fetal bovine serum (FBS) and antibiotics–antimycotics (PSF; 100 units/mL penicillin G sodium, […], and 250 ng/mL amphotericin B). All cells were maintained at 37 °C under a humidified atmosphere containing 5% CO2. Briefly, cells were seeded in 96-well plates with various doses of compounds and incubated for 72 h. The cells were stained as previously described. First, cells were fixed with 10% trichloroacetic acid and stained with 0.4% SRB in a 1% acetic acid solution. After washing and drying, dyes were dissolved in 10 mM Tris buffer (pH 10.0) and absorbance was measured at 515 nm. The percentage of cell proliferation was determined according to the following formula: cell proliferation (%) = 100 × ((A treated − A zero day)/(A control − A zero day)), where A is the average absorbance. The IC50 values were calculated through non-linear regression analysis using TableCurve 2D v5.01 (Systat Software Inc., San Jose, CA, USA).

SK-Hep-1 = assay: Anti-proliferative activity, SRB staining assay, SK-Hep-1; assay type: cell-based; settings: Homo sapiens, SK-HEP1, 72 h, read-out: IC50 Anti-Proliferation SK-Hep-1
Experimental: as §1

[1] = test system: human umbilical vein endothelial cells (HUVEC); assay: Anti-angiogenic activity, VEGF-induced tube formation assay; assay type: cell-based; settings: for pIC50: Homo sapiens, HUVEC, VEGF 50 ng/mL, 6 h, read-out: IC50 Anti-Angiogenesis Tube Formation
Experimental: (§2) Anti-angiogenic activity was evaluated using human umbilical vein endothelial cells (HUVEC) using previously described experimental methods. HUVEC cells were purchased from the American Type Culture Collection (ATCC, Rockville, MD, USA) and cultured in EGM-2 (Lonza, Walkerswille, MD, USA) supplemented with 10% fetal bovine serum (FBS) and antibiotics–antimycotics (PSF; 100 units/mL penicillin G sodium, […], and 250 ng/mL amphotericin B). Briefly, HUVEC cells were mixed with tested compounds in 0.5% FBS EBM-2 media stimulated with or without VEGF (50 ng/mL) on matrigel-coated 96-well plates for 6 h at 37 °C under a humidified atmosphere containing 5% CO2. After the tube formation, cells were photographed using an inverted microscope (Olympus Optical Co. Ltd., Tokyo, Japan), then images were quantified with Angiogenesis Analyzer using Image J software. Tube formation activity was calculated using the following formula: (Total segment # (tested compound) − Total segment # (VEGF−))/(Total segment # (VEGF+) − Total segment # (VEGF−)) × 100. The IC50 value was calculated through non-linear regression analysis using TableCurve 2D v5.01 (Systat Software Inc., San Jose, CA, USA). Cell viability with HUVEC cells were measured independently. First, HUVEC cells were seeded into a 96-well plate and the culture medium was replaced with a serum-free medium when it reached 60% confluency. After overnight starvation, cells were treated with samples and VEGF (50 ng/mL) in 2% FBS EBM-2 medium. Cells were further incubated for 24 h, and MTT assay was used to measure the cell viability. The formazan products were dissolved in dimethyl sulfoxide (DMSO). The absorbance was measured at 570 nm using VersaMax ELISA microplate reader (Molecular Devices, Sunnyvale, CA, USA).

A549 = assay: Anti-proliferative activity, SRB staining assay, A549; assay type: cell-based; settings: Homo sapiens, 72 h, read-out: IC50 Anti-Proliferation A549
Experimental: as §1

MDA-MB-231 = assay: Anti-proliferative activity, SRB staining assay, MDA-MB-231; assay type: cell-based; settings: Homo sapiens, 72 h, read-out: IC50 Anti-Proliferation MDA-MB-231
Experimental: as §1

K562 = assay: Anti-proliferative activity, SRB staining assay, K562; assay type: cell-based; settings: Homo sapiens, 72 h
Experimental: as §1

[2] = test system: human umbilical vein endothelial cells (HUVEC); assay: HUVEC cell viability, MTT assay; assay type: cell-based; settings: VEGF 50 ng/mL, 24 h, read-out: IC50 Anti-Angiogenesis Cell Viability
Experimental: as §2

[3] = biological target: Candida albicans-derived isocitrate lyase (ICL) (Candida albicans, UniProt Q9P8Q7); assay: biochemical; assay type: biochemical
Experimental: A 1 mL aliquot of the reaction mixture contained 20 mM sodium phosphate buffer (pH 7.0), 1.27 mM threo-DL-(+)-isocitrate, 3.75 mM MgCl2, 4.1 mM phenylhydrazine, and 2.5 μg/mL of recombinant ICL. The reaction was immediately initiated following the addition of a substrate with or without a prescribed concentration of the inhibitor dissolved in DMSO (final concentration, 1%). Glyoxylate phenylhydrazone formation was spectrophotometrically assessed at 324 nm after incubation at 37 °C for 30 min. The percent inhibition of ICL enzyme activity for each compound was calculated relative to the inhibitor-free control and the IC50 values were calculated using nonlinear regression analysis (percent inhibition versus concentration). 3-Nitropropionic acid was used as a positive control. Protein concentrations were measured using the Bradford method with the Bio-Rad protein assay kit (Bio-Rad) and bovine serum albumin as the standard.

SNU638 = assay: Anti-proliferative activity, SRB staining assay, SNU638; assay type: cell-based; settings: Homo sapiens, SNU-638, 72 h, read-out: IC50 Anti-Proliferation SNU 638
Experimental: as §1

[4] = recombinant ICL, 37 °C, 30 min, read-out: IC50 ICL

Chain of Candida albicans-derived isocitrate lyase (ICL) (Q9P8Q7 whole entry): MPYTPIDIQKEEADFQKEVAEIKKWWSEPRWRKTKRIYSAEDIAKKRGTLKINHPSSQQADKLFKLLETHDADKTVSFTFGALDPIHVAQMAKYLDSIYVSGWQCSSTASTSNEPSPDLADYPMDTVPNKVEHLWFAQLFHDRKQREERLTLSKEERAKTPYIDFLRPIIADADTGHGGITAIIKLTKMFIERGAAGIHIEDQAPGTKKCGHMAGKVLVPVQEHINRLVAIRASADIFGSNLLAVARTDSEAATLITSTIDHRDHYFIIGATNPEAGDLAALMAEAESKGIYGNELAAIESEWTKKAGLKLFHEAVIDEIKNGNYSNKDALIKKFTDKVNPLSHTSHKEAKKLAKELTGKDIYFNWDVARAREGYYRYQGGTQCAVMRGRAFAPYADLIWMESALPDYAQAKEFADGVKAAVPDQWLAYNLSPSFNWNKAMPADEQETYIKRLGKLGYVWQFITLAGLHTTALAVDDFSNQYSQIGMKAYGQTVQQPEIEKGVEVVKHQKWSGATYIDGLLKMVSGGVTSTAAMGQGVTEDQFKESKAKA

Compound	pIC50 (HCT116)	pIC50 (SK-Hep-1)	pIC50 [1]	pIC50 (A549)	pIC50 (MDA-MB-231)	pIC50 (K562)	pIC50 [2]	inhibition of isocitrate lyase (ICL) [3]	pIC50 [3, 4]	pIC50 (SNU638)	pIC50 [3]	anti-angiogenic activity in the tube formation assay ([1]; non-cytotoxic concentrations range 5–20 μM)
O=C(NC[C@H]1[C@H](CNC(=O)c2cc(Br)c[nH]2)[C@@H](C(=O)O)[C@@H]1C(=O)O)c1cc(Br)c[nH]1 [Compound 2, ageleste C]	4.36	< 4.30	< 4.40	4.31	< 4.30	4.72	< 4.40	moderate inhibition	4.66	4.43		
COC(=O)[C@@H]1[C@@H](CNC(=O)c2cc(Br)c[nH]2)[C@H](CNC(=O)c2cc(Br)c[nH]2)[C@H]1C(=O)OC [Compound 4, ageleste B]	4.42	< 4.30	< 4.40	4.52	< 4.30	4.58	< 4.40		4.07	4.43		
COc1cc([C@@H]2c3cc4c(cc3[C@@H](O[C@@H]3O[C@@H]5CO[C@@H](C)O[C@H]5[C@H](O)[C@H]3O)[C@H]3COC(=O)[C@H]23)OCO4)cc(OC)c1O [Etoposide, reference compound]	6.14	6.13		6.08	5.51					6.20		
COc1cccc2c1C(=O)c1c(O)c3c(c(O)c1C2=O)C[C@@](O)(C(=O)CO)C[C@@H]3O[C@H]1C[C@H](N)[C@H](O)[C@H](C)O1 [Doxorubicin, reference compound]						5.97						
O=C(O)CC[N+](=O)[O-] [Compound 3-NP, 3-Nitropropionic acid, reference compound]											4.96	
NC1=NC(=O)C([C@@H]2[C@@H](CNC(=O)c3cc(Br)c[nH]3)[C@H](CNC(=O)c3cc(Br)c[nH]3)[C@H]2C2NC(N)=NC2=O)N1 (mixture of isomers) [Compound 1, dioxysceptrin]	5.00	4.45	5.10	4.50	4.48	4.89	< 4.40		< 4.00	5.10		moderate anti-angiogenic activity
CCN(CC)CCNC(=O)c1c(C)[nH]c(/C=C2\C(=O)Nc3ccc(F)cc32)c1C [Sunitinib, sunitinib, reference compound]			5.62				5.00					
COC(=O)[C@@H]1[C@@H](CNC(=O)c2cc(Br)c[nH]2)[C@H](CNC(=O)c2cc(Br)c[nH]2)[C@H]1C(=O)O [Compound 3, ageleste A]	< 4.30	< 4.30	< 4.40	< 4.30	< 4.30	4.42	< 4.40		< 4.00	< 4.30		
